Test results from patent publication US9232796B2, “Herbicidal compositions comprising 4-amino-3-chloro-5-fluoro-6-(4-chloro-2-fluoro-3-methoxyphenyl) pyridine-2-carboxylic acid or a derivative thereof and acetyl-CoA carboxylase (ACCase) inhibitors” (DOW AGROSCIENCES LLC, priority 2012, dated 2016).

What was measured:
SCPJU = assay: Example II in-water applied, greenhouse, transplanted paddy rice weeds; type: in vivo, Schoenoplectus juncoides (Roxb.) Palla
Method: (§1) Weed seeds or nutlets of the desired test plant species were planted in puddled soil (mud) prepared by mixing a shredded, non-sterilized mineral soil (50.5 percent silt, 25.5 percent clay, and 24 percent sand, with a pH of about 7.6 and an organic matter content of about 2.9 percent) and water at a 1:1 volumetric ratio. The prepared mud was dispensed in 365 mL aliquots into 16-ounce (oz.) non-perforated plastic pots with a surface area of 86.59 square centimeters (cm^2) leaving a headspace of 3 centimeters (cm) in each pot. Mud was allowed to dry overnight prior to planting or transplanting. Rice seeds were planted in Sun Gro MetroMix® 306 planting mixture, which typically has a pH of 6.0 to 6.8 and an organic matter content of about 30 percent, in plastic plug trays. Seedlings at the second or third leaf stage of growth were transplanted into 860 mL of mud contained in 32-oz. non-perforated plastic pots with a surface area of 86.59 cm^2 4 days prior to herbicide application. The paddy was created by filling the headspace of the pots with 2.5 to 3 cm of water. […] The plants were grown for 4-22 days in a greenhouse with an approximate 14 hr. photoperiod which was maintained at about 29° C. during the day and 26° C. during the night. Nutrients were added as Osmocote® (19:6:12, N:P:K+minor nutrients) at 2 g per 16-oz. pot and 4 g per 32-oz. pot. Water was added on a regular basis to maintain the paddy flood, and supplemental lighting was provided with overhead metal halide 1000-Watt lamps as necessary. The plants were employed for testing when they reached the first through fourth true leaf stage.
(§2) Treatments consisted of the acid or esters of 4-amino-3-chloro-5-fluoro-6-(4-chloro-2-fluoro-3-methoxy-phenyl)pyridine-2-carboxylic acid (compound A) each formulated as an SC (suspension concentrate) and various herbicidal components alone and in combination.
(§3) For formulated compounds, a measured amount was placed in an individual 100 or 200 mL glass vial and was dissolved in a volume of 1.25% (v/v) Agri-Dex® crop oil concentrate to obtain application solutions.
(§4) Applications were made by injecting with a pipetter appropriate amounts of the application solutions, individually and sequentially, into the aqueous layer of the paddy. Control plants were treated in the same manner with the solvent blank. Applications were made so that all treated plant material received the same concentrations of acetone and crop oil concentrate.
(§5) The treated plants and control plants were placed in a greenhouse as described above and water was added as needed to maintain a paddy flood. After approximately 3 weeks the condition of the test plants as compared with that of the untreated plants was determined visually and scored on a scale of 0 to 100 percent where 0 corresponds to no injury or growth inhibition and 100 corresponds to complete kill.
(§6) Colby's equation was used to determine the herbicidal effects expected from the mixtures (Colby, S. R. 1967. Calculation of the synergistic and antagonistic response of herbicide combinations. Weeds 15:20-22.).
(§7) The following equation was used to calculate the expected activity of mixtures containing two active ingredients, A and B: Expected=A+B−(A×B/100)

CYPIR = assay: Example V (second) postemergence foliar-applied ternary mixtures, greenhouse, direct seeded rice weeds; type: in vivo, Cyperus iria L.
Method: as §5, with “watered by sub-irrigation” for “water was added as needed”, “prevent wash-off of the test compounds.” for “maintain a paddy flood.”, “weeks,” for “weeks”
as §6
The following equation was used to calculate the expected activity of mixtures containing three active ingredients, A, B, and C: Expected=A+B+C−((A×B+A×C+B×C)/100)+(A×B×C/10000)

CYPRO = assay: Example II in-water applied, greenhouse, transplanted paddy rice weeds; type: in vivo, Cyperus rotundus L.
Method: as §1, §2, §3, §4, §5, §6, §7

C[C@@H](Oc1ccc(Oc2nc3ccc(Cl)cc3o2)cc1)C(=O)N(C)c1ccccc1F [Metamifop, (2R)-2-[4-[(6-chloro-2-benzoxazolyl)oxy]phenoxy]-N-(2-fluorophenyl)-N-methylpropanamide]
Visual Weed Control (%) - 21 DAA SCPJU Obs (SCPJU; in-water, 75 gai/ha): 0% | Visual Weed Control (%) - 21 DAA SCPJU Obs (SCPJU; in-water, 150 gai/ha): 0%

CCC/C(=N\OCC(C)Oc1ccc(Cl)cc1)C1=C(O)CC(C2CCCSC2)CC1=O (centres unmarked) [Profoxydim, 2-[1-[[2-(4-chlorophenoxy)propoxy]imino]butyl]-3-hydroxy-5-(tetrahydro-2H-thiopyran-3-yl)-2-cyclohexen-1-one, reference compound]
Visual Weed Control (%) - 22 DAA CYPIR Obs (CYPIR; 3.12 gai/ha): 0% | Visual Weed Control (%) - 22 DAA CYPIR Obs (CYPIR; 6.25 gai/ha): 0% | Visual Weed Control (%) - 22 DAA SCPJU Obs (SCPJU; in-water, 50 gai/ha): 0% | Visual Weed Control (%) - 22 DAA SCPJU Obs (SCPJU; in-water, 100 gai/ha): 0%

COc1c(Cl)ccc(-c2nc(C(=O)OCc3ccccc3)c(Cl)c(N)c2F)c1F [Compound A Benzyl Ester, benzyl ester of 4-amino-3-chloro-5-fluoro-6-(4-chloro-2-fluoro-3-methoxy-phenyl)pyridine-2-carboxylic acid]
Visual Weed Control (%) - 21 DAA CYPIR Obs (CYPIR; 8 gae/ha): 53% | Visual Weed Control (%) - 22 DAA CYPIR Obs (CYPIR; 8 gae/ha): 37% | Visual Weed Control (%) - 21 DAA CYPIR Obs (CYPIR; 16 gae/ha): 95% | Visual Weed Control (%) - 21 DAA SCPJU Obs (SCPJU; in-water, 4.38 gae/ha): 70% | Visual Weed Control (%) - 20 DAA CYPRO Obs (CYPRO; 4.38 gae/ha): 50% | Visual Weed Control (%) - 21 DAA CYPRO Obs (CYPRO; 4.38 gae/ha): 20% | Visual Weed Control (%) - 20 DAA CYPRO Obs (CYPRO; 8.75 gae/ha): 100% | Visual Weed Control (%) - 20 DAA CYPRO Obs (CYPRO; 17.5 gae/ha): 100%

COc1c(Cl)ccc(-c2nc(C(=O)O)c(Cl)c(N)c2F)c1F [Compound A Acid, 4-amino-3-chloro-6-(4-chloro-2-fluoro-3-methoxyphenyl)-5-fluoropyridine-2-carboxylic acid]
Visual Weed Control (%) - 25 DAA SCPJU Obs (SCPJU; 8.75 gae/ha in-water): 65% | Visual Weed Control (%) - 25 DAA SCPJU Obs (SCPJU; 17.5 gae/ha in-water): 80% | Visual Weed Control (%) - 25 DAA SCPJU Obs (SCPJU; 35 gae/ha in-water): 95% | Visual Weed Control (%) - 20 DAA SCPJU Obs (SCPJU; in-water, 8.75 gae/ha): 70% | Visual Weed Control (%) - 21 DAA SCPJU Obs (SCPJU; in-water, 8.75 gae/ha): 65% | Visual Weed Control (%) - 22 DAA SCPJU Obs (SCPJU; in-water, 16 gae/ha): 70% | Visual Weed Control (%) - 20 DAA SCPJU Obs (SCPJU; in-water, 17.5 gae/ha): 95% | Visual Weed Control (%) - 21 DAA SCPJU Obs (SCPJU; in-water, 17.5 gae/ha): 90% | Visual Weed Control (%) - 20 DAA SCPJU Obs (SCPJU; in-water, 35 gae/ha): 95% | Visual Weed Control (%) - 21 DAA CYPRO Obs (CYPRO; 8.75 gae/ha): 0% | Visual Weed Control (%) - 21 DAA CYPRO Obs (CYPRO; Compound A Acid 8.75 gae/ha): 0% | Visual Weed Control (%) - 21 DAA CYPRO Obs (CYPRO; Compound A Acid 17.5 gae/ha): 30% | Visual Weed Control (%) - 21 DAA CYPRO Obs (CYPRO; Compound A Acid 35 gae/ha): 85%

CCCCOC(=O)[C@@H](C)Oc1ccc(Oc2ccc(C#N)cc2F)cc1 [Cyhalofop-butyl, butyl(2R)-2-[4-(4-cyano-2-fluorophenoxy)phenoxy]propanoate, reference compound]
Visual Weed Control (%) - 21 DAA CYPIR Obs (CYPIR; 35 gai/ha): 0% | Visual Weed Control (%) - 25 DAA SCPJU Obs (SCPJU; 90 gai/ha, in-water): 0% | Visual Weed Control (%) - 25 DAA SCPJU Obs (SCPJU; 180 gai/ha, in-water): 0%

CCOC(=O)[C@@H](C)Oc1ccc(Oc2cnc3cc(Cl)ccc3n2)cc1 [Quizalofop-p-ethyl, ethyl(2R)-2-[4-[(6-chloro-2-quinoxalinyl)oxy]phenoxy]propanoate, reference compound]
Visual Weed Control (%) - 21 DAA CYPRO Obs (CYPRO; 15 gai/ha): 0% | Visual Weed Control (%) - 21 DAA CYPRO Obs (CYPRO; 30 gai/ha): 0%
